Patent publication US11035008B2, “Biomarkers for cancer” (BERGENBIO ASA, priority 2015, dated 2021)

How the values were obtained:
pErk = pErk in CD33-positive cells, MOLM13 systemic xenograft model, flow cytometry; assay type: in vivo, mice; settings: 50 mg/kg for 4 days
Method: (§1) Material from an in vivo MOLM13 systemic model was also evaluated by flow cytometry. Expression of the previously evaluated biomarkers was examined in cells isolated from bone marrows and spleens of animals with systemic AML disease (MOLM13, inoculated for 7 days prior to treatment) treated with BGB324 at 50 mg/kg for 4 days. The spleens analysed were from the same study that was analysed by microarray, as mentioned above. The bone marrows were from an identical study that was done at a later time point to get more material for flow analyses.
(§2) Cells isolated from spleens and bone marrows were assessed for phosphorylation of Erk, PLCγ1 and Akt, and expression of PHGDH and SLFN11. The samples were also co-stained with CD33, and biomarker expression was only evaluated in CD33-positive cells.

pPLCγ1 [1] = assay: pPLCγ1 in AML cell panel, short term treatment, flow cytometry; assay type: cell-based, human
Method: (§3) Staining of Cells for Flow Cytometry, General Protocol: • Live cells were centrifuged at 300 G for 5 minutes, washed once with PBS and centrifuged again. Cells were then fixed in 4% PFA in PBS for 10 minutes at 37° C., and resuspended in PBS. Unless processed immediately, samples were at this point stored in PBS at 4° C. (up to three weeks) or at −80° C. (for long-term storage). If intracellular epitopes were stained, cells were permebealized in 90% MeOH for 30 minutes on ice. Unless processed immediately, samples were also be stored in 90% MeOH at −20° C. for up to two months. • Further staining procedure (permebealized or non-permebealized cells): • Cells were washed 1× in PBS and blocked in blocking buffer; either PBS+0.5% BSA or PBS+1:1000 Octagam (5 mg/ml) for 15 minutes at room temperature. Thereafter, cells were incubated with primary AB at the indicated dilutions in incubation buffer (IB, PBS+0.5% BSA) for 1 hour at room temperature. Cells were then washed 3× with IB and incubated with secondary AB (conjugated to a fluorescent flurophore) at 1:1000 dilution in IB for 30 minutes at room temperature. Finally, cells were washed 3× in IB and resuspended in PBS. Cells were analyzed immediately, or stored for up to 24 hours at 4° C. before analysis. • Analysis of cells was done on a BD LSR Fortessa or a BD C6 Accuri flow cytometer, and further processing was done using FlowJo v.7.6. • All incubation steps (but not storage) were done on a spinning wheel or gentle shaker.
(§4) The diversity of AML cells and their responses was investigated using a panel of AML cell lines and assessing their responses after BGB324-treatment.
(§5) When investigating phospho-markers, the cells were starved overnight in the appropriate growth medium containing 0.1% FBS, pre-treated with BGB324 at 0.5 and 1 μM for one hour, and stimulated with 10% FBS for 20 minutes (to induce phosphorylation, with BGB324 present). Cells were then fixed and stained for flow cytometric analyses.

totPLCγ1 = assay: Total PLCγ1 in AML cell panel, long-term treatment, flow cytometry; assay type: cell-based, human
Method: as §3, §4
(§6) Long-term treatment was done in complete medium, without starvation. The responders were treated with 0.05, 0.1 or 0.3 μM BGB324, whereas the non-responders were treated with only a single dose of 2.5 μM BGB324. The cells were fixed after 24, 48 or 72 hours, and the samples were stored in 90% MeOH at −20° C. until all samples were harvested, and stained for flow at the same time.

totPHGDH = assay: Total PHGDH in AML cell panel, long-term treatment, flow cytometry; assay type: cell-based, human
Method: as §3, §4, §6

PHGDH = PHGDH in CD33-positive cells, MOLM13 systemic xenograft model, flow cytometry; assay type: in vivo, mice; settings: 50 mg/kg for 4 days
Method: as §1, §2

pAkt(S473) = pAkt(S473) by flow cytometry in MOLM13 cells (Example 1); assay type: cell-based, human
Method: as §3
MOLM13 cells were treated with BGB324 at different doses, and phosphorylation of Akt at the S473 phosphorylation site was assessed using a pAkt (S473) XP antibody from Cell Signaling Technology (#4060, BGB #109). Due to previous experience using this AB for flow, the AB was not titrated, but used at the concentration recommended by the manufacturer for flow cytometry.
MOLM13 cells were cultured in starvation medium (RPMI, 0.1% FBS) over night, pre-treated with BGB324 at 3 μM for 20 minutes, and thereafter stimulated with 10% FBS for 20 minutes (+/−BGB324) to induce Akt phosphorylation. […]

pPLCγ1 [2] = assay: pPLCγ1 in CD33-positive cells, MOLM13 systemic xenograft model, flow cytometry; assay type: in vivo, mice; settings: 50 mg/kg for 4 days
Method: as §1, §2

pAkt (S473) = assay: pAkt(S473) in AML cell panel, short term treatment, flow cytometry; assay type: cell-based, human; settings: 1 hour
Method: as §3, §4, §5

pAkt = pAkt in CD33-positive cells, MOLM13 systemic xenograft model, flow cytometry; assay type: in vivo, mice; settings: both tissues (spleens and bone marrows), 50 mg/kg for 4 days; change not significant
Method: as §1, §2

totErk = assay: Total Erk in AML cell panel, long-term treatment, flow cytometry; assay type: cell-based, human
Method: as §3, §4, §6

With `Nc1nc(Nc2ccc3c(c2)CC[C@@H](N2CCCC2)CC3)nn1-c1cc2c(nn1)-c1ccccc1CCC2` [BGB324, 1-(6,7-dihydro-5H-benzo[6,7]cyclohepta[1,2-c]pyridazin-3-yl)-N3-((7-(S)-pyrrolidin-1-yl)-6,7,8,9-tetrahydro-5H-benzo[7]annulene-2-yl)-1H-1,2,4-triazole-3,5-diamine] the pErk (pErk; bone marrows) was “significant reduction”, the pErk (pErk; spleens) was “significant reduction” and the pPLCγ (pPLCγ1 [1]; Kasumi, 1 hour) was “No response in PLCγ”. For the same compound, the pPLCγ (pPLCγ1 [1]; MOLM13, all treatment doses, 1 hour) was “significantly reduced”, the pPLCγ (pPLCγ1 [1]; Mv4-11, all treatment doses, 1 hour) was “significantly reduced” and the pPLCγ (pPLCγ1 [1]; OCI-M1, 1 hour) was “No response in PLCγ”. The PLCγ1 expression (totPLCγ1; Kasumi, 2.5 μM, 48 and 72 hours) was “significant increase of PLCγ1 expression”, the “total protein expression of PLCγ1” value (totPLCγ1; MOLM13, 0.3 μM, 24 hours) was “slight but significant reduction” and the “total protein expression of PLCγ1” value (totPLCγ1; Mv4-11, 0.3 μM, 24 and 72 hours) was “significant reduction”. The PLCγ1 expression (totPLCγ1; OCI-AML5, 2.5 μM, only 72 hours) was “significant increase of PLCγ1 expression”, the PHGDH expression (totPHGDH; Kasumi, 2.5 μM, significant at 24 hours) was “increase in PHGDH expression” and the “total protein expression of PHGDH” value (totPHGDH; MOLM13, 24, 48 and 72 hours) was “no significant changes”. The “total protein expression of PHGDH” value (totPHGDH; Mv4-11, 0.3 uM, 24 and 72 hours) was “significant reduction of PHGDH”, the PHGDH expression (totPHGDH; OCI-AML5, 2.5 μM, significant in all time points) was “increase in PHGDH expression” and the PHGDH expression (PHGDH; bone marrows) was “significant reduction”. The PHGDH expression (PHGDH; spleens) was “significant reduction”, the “pAkt in shAxl-expressing cells” value (pAkt(S473); MOLM13 shAxl (Axl knockdown), 0.1-3 μM) was “inhibition of pAkt was also seen” and the “Akt(S473) phosphorylation” value (pAkt(S473); MOLM13 starved over night, 3 μM, presence and absence of 10% FBS) was “potently inhibited”. For the same compound, the pAkt dose-response (pAkt(S473); MOLM13 wt, shLuc, shAxl, 0.1-3 μM, starved and non-starved) was “potent dose-dependent reduction of pAkt”, the pPLCγ1 (pPLCγ1 [2]; bone marrows) was “significant reduction” and the pPLCγ1 (pPLCγ1 [2]; spleens) was “significant reduction”. For the same compound, the Akt phosphorylation (pAkt (S473); Kasumi, 0.5 and 1 μM) was “close to no effect”, the Akt phosphorylation (pAkt (S473); MOLM13, 0.5 and 1 μM, 10% FBS stimulation) was “inhibits Akt phosphorylation” and the Akt phosphorylation (pAkt (S473); Mv4-11, 0.5 and 1 μM, not significant at 0.5 μM) was “inhibits Akt phosphorylation”. For the same compound, the pAkt (pAkt (S473); OCI-M1, 1 μM) was “slight and significant inhibition of pAkt”, the Akt phosphorylation (pAkt (S473); OCI-M1, 0.5 and 1 μM) was “close to no effect” and the pAkt (pAkt) was “went down”. The Erk expression (totErk; Kasumi, 2.5 μM, significant at 48 and 72 hours) was “reduction of Erk expression”, the Erk expression (totErk; MOLM13, 0.3 μM, 48 and 72 hours) was “normalized to control-levels” and the Erk expression (totErk; MOLM13, 0.3 μM, 24 hours) was “slight, but significant, reduction of Erk expression”. The Erk expression (totErk; Mv4-11, 0.3 μM, 24, 48 and 72 hours) was “gradual reduction of Erk expression”, the Erk expression (totErk; Mv4-11, 0.3 μM, 48 and 72 hours) was “significantly lower than control cells” and the Erk expression (totErk; OCI-AML5, 2.5 μM, significant at 24 and 48 hours) was “reduction of Erk expression”.
